Measurements from publication PMC12186843, “Targeting GABAergic Hypofunction Associated with Schizophrenia: Identification of α1β2γ2GABA‑A Receptor Ligands with Neuroprotective and Antipsychotic Properties” (ACS Chemical Neuroscience, 2025).
Several values for one entry are separate records, joined by “and”; a condition that tells them apart may be missing. Equal values may be shown once. Where a name gives a salt, the structure may show the parent alone.

What was measured:
GABA-A receptor = assay: Radioligand binding at the GABA-A receptor; set-up: species or system rat; settings: mean of two-three independent experiments; read-out: GABA-A Ki ± SEM
Procedure: The study was conducted in accordance with previously established protocols, and performed in duplicate. Rat brains were homogenized and prepared following the described methodologies. The assay was carried out directly on 96-well microplates containing 50 mM Tris-HCl buffer (pH 7.4) in a total volume of 300 μL. […] To determine nonspecific binding, 100 μM GABA was included in the mixture. The 96-well microplates were incubated at 0 °C for 10 min, followed by rapid filtration through FilterMate B glass fiber filters (PerkinElmer, USA) using a Harvester-96 MACH III FM (Tomtec, USA). The filters were gently dried in a microwave and sealed in plastic bags (PerkinElmer, USA). Each filter was then immersed in 10 mL of Ultima Gold MV liquid scintillation cocktail (PerkinElmer, USA). […] Ki values were calculated using the Cheng and Prusoff equation, and statistical analyses were conducted using GraphPad Prism (version 4.0, San Diego, CA, USA)

PAMPA permeability assay = format: in vitro ADME; settings: PBS pH 7.4, 100 μM, zolpidem tested as tartrate; for Papp at 5 h, 100 μM: pH 7.4, PAMPA, read-out: Permeability Pe ± SD; for Permeability Pe ± SD: 5 h
Procedure: PAMPA. The precoated PAMPA Plate System Gentest, obtained from Corning (Tewksbury, MA, USA), was used for the permeability study. The system includes a 96-well receiver filter plate precoated with structured phospholipid layers and a matching donor microplate. Stock solutions of the test compounds and reference drugs were prepared in PBS buffer (pH 7.4) at a final concentration of 100 μM. Each compound solution (200 μL) was added to the donor wells and incubated at room temperature for 5 h. The quantity of molecules that penetrated from the donor wells to the acceptor wells through the phospholipid membrane was determined using UPLC-MS spectrometry (Waters ACQUITY TQD system with the TQ Detector, Waters, Milford, USA) with an internal standard. Permeability coefficients (Pe, cm/s) were calculated according to the formula provided by the manufacturer.

α1β2γ2 GABA-A receptor = biological target: T1, α1β2γ2 GABA-A receptor (Homo sapiens, UniProt P14867+P18507); assay: Electrophysiological studies (QPatch16X automated patch-clamp), PAM efficacy; format: cell-based
T1 construct: expressed in transfected cells
T1 sequence (P14867 28-456): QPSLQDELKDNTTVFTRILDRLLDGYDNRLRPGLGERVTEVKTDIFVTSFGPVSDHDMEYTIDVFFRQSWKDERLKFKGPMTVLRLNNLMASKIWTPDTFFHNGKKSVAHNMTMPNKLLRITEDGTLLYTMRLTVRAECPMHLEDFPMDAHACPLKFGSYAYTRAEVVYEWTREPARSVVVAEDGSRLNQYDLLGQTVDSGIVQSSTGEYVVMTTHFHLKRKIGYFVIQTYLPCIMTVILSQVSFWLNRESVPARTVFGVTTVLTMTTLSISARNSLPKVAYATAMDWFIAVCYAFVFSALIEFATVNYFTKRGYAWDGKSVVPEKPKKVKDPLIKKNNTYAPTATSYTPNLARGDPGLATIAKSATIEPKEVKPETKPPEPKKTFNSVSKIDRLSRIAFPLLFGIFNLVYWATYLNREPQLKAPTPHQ
T1 sequence (P47870 25-512 partner limits assumed): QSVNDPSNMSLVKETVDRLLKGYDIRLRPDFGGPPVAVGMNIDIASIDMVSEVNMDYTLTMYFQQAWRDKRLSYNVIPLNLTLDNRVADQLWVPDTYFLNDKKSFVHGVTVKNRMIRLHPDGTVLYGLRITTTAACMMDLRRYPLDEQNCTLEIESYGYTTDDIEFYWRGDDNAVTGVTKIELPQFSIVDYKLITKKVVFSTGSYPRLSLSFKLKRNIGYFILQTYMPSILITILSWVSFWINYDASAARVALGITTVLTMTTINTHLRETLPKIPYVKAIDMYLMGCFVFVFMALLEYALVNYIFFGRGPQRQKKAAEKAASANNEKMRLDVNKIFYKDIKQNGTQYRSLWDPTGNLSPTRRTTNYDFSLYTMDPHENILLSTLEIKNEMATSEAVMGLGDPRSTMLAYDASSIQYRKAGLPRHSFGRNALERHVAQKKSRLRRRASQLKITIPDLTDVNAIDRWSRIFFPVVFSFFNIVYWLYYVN
T1 sequence (P18507 40-475): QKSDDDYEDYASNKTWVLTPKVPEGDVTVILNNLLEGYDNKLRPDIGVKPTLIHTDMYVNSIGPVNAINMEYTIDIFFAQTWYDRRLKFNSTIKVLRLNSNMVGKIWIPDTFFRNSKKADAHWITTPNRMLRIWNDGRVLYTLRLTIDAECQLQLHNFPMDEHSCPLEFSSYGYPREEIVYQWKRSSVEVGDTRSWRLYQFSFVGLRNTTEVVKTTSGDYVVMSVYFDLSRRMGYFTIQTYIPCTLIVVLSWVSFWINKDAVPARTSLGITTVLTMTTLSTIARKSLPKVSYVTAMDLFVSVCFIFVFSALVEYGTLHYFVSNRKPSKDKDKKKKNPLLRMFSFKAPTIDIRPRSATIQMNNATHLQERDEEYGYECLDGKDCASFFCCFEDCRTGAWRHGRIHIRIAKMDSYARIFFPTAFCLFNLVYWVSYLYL

SH-SY5Y cells [1] = assay: Intracellular calcium concentration after 6-OHDA (Fluo-4); format: cell-based, human; settings: 50 μM pretreatment 1 h, then 6-OHDA 250 μM 1 h
Procedure: 7 (A). Effect of 6-Hydroxydopamine (6-OHDA) on intracellular calcium concentration [Ca^2+] determined by Fluo-4 AM. After pretreatment with tested compounds (50 μM) or vehicle (0.5% DMSO, v/v) for 1 h, the cells were incubated with 6-Hydroxydopamine (6-OHDA, 250 μM) for 1 h. 6-OHDA control: cells treated with 250 μM of 6-OHDA. […]. DMSO control: cells treated with 0.5% DMSO only. Data are presented as the mean ± SD from 2–3 independent experiments. Experiments were carried on with ImageXpress Micro XLS (Molecular Devices). (B) The level of ROS generation was determined by Cell ROX dye. After pretreatment with tested compounds (50 μM) or vehicle (0.5% DMSO, v/v) for 1 h, the cells were incubated with hydrogen peroxide (H2O2, 300 μM) for 1 h. H2O2 control: cells treated with H2O2 (300 μM). DMSO control: cells treated with 0.5% DMSO only. Data are presented as the mean ± SD from 2–3 independent experiments. Experiments were carried on with the ImageXpress Micro XLS (Molecular Devices).
The SH-SY5Y human neuroblastoma cell line was maintained according to established protocols. The cells, obtained from the American Type Culture Collection (ATCC), were cultured in Dulbecco’s Modified Eagle’s Medium (DMEM, high glucose; Thermo Fisher), supplemented with 10% fetal bovine serum (Thermo Fisher), 100 IU/ml penicillin (Merck), and 100 μg/mL streptomycin (Merck). They were grown in 75 cm^2 flasks (Nunc) at 37 °C in a humidified atmosphere containing 5% CO2. For compound evaluation, SH-SY5Y cells were plated in 96-well plates (Falcon) at a density of 2 × 10^4 cells per well. The cells were allowed to adhere and grow for 24 h in an incubator set to 37 °C and 5% CO2 before starting the experiments. Stock solutions of both test and reference compounds were prepared at a concentration of 10^–2 M. A minimum of 1 mg of each compound was dissolved in dimethyl sulfoxide (DMSO). Serial dilutions were made in DMSO, then further diluted in PBS, mixed, and added to the cell culture medium.
The intracellular Ca^2+ levels were assessed using a homogeneous cell-based assay with the Fluo-4 Direct Calcium Assay Kit (Thermo Fisher). Following incubation with the tested compounds, the supernatant was discarded, and the cells were incubated with 1 μM Fluo-4/AM in FluoroBrite DMEM (Thermo Fisher) for 1 h at 37 °C. The results were expressed as a percentage relative to the control (DMSO). Fluorescence intensity was recorded using the ImageXpress Micro XLS system (Molecular Devices).

SH-SY5Y cells [2] = assay: ToxiLight assay (cell membrane damage); format: cell-based; settings: Table S1, 24 h
Procedure: Damage to the cell membrane was assessed using the bioluminescent ToxiLight bioassay (Lonza), a profound method for detecting cell toxicity. Following 24 h of treatment, 5 μL of the supernatant above the sediment was transferred to a 384-well plate (PerkinElmer). Subsequently, 20 μL of Adenylate Kinase Detection Reagent (AKDR) was added to each well. Luminescence was recorded after a 10 min incubation period using a POLARstar Omega plate reader (BMG Labtech). Results are presented as a percentage relative to the control sample (cells lysed), reflecting the proportion of dead cells compared to the control.
(§1) 1. Cytotoxicity studies for selected compounds
Table S1. The viability of the cells SH-SY5Y after treatment with tested compounds for 24 the results are expressed as a percentage of dead cells with luminescence ToxiLight Assay. The results are expressed as a per cent of control with whole lysis cells. N.C. not countable […]
Table S2. The viability of the cells SH-SY5Y after treatment with tested compounds for 24 h the results are expressed as a percentage of live cells with fluorescence PrestoBlue Assay. The results are expressed as a per cent of vehicle (DMSO). […]

SH-SY5Y cells [3] = assay: PrestoBlue cell viability assay; format: cell-based; settings: Table S2, 24 h
Procedure: Cell viability was determined using the Presto Blue reagent (ThermoFisher) following the manufacturer’s instructions.
as §1
Table S1. The viability of the cells SH-SY5Y after treatment with tested compounds for 24 the results are expressed as a percentage of dead cells with luminescence ToxiLight Assay. The results are expressed as a per cent of control with whole […]
percentage of live cells with fluorescence PrestoBlue Assay. The results are expressed as a per cent of vehicle (DMSO).

Compound: Cc1ccc2nc(-c3ccc(F)cc3)c(CC(=O)NC3CCNC3)n2c1 (stereo not shown) [Compound 16, 2-[2-(4-Fluorophenyl)-6-methylimidazo[1,2-a]pyridin-3-yl]-N-(pyrrolidin-3-yl)acetamide]
- Ki (GABA-A receptor): < 200 nM and 140 nM
- Papp at 5 h, 100 μM (PAMPA permeability assay): 0.154 ± 0.005 ×10⁻⁶ cm/s

Compound: Cc1ccc2nc(-c3ccc(F)cc3)c(CC(=O)N3CCC(C)CC3)n2c1 [Compound 7, 2-[2-(4-Fluorophenyl)-6-methylimidazo[1,2-a]pyridin-3-yl]-1-(4-methylpiperidin-1-yl)ethan-1-one]
- Ki (GABA-A receptor): 204 ± 20.6 nM

Compound: CCN1CCCC1CNC(=O)c1cc(S(N)(=O)=O)ccc1OC (stereo not shown) [sulpiride, reference compound]
- Permeability Pe ± SD (PAMPA permeability assay): 0.016 ± 0.003 ·10^–6 cm/s

Compound: Cc1ccc2nc(-c3ccc(F)cc3)c(CC(=O)N3CCSC3(C)C)n2c1 [Compound 14, 1-(2,2-Dimethyl-1,3-thiazolidin-3-yl)-2-[2-(4-fluorophenyl)-6-methylimidazo[1,2-a]pyridin-3-yl]ethan-1-one]
- Ki (GABA-A receptor): 551 nM and 552 nM

Compound: Cc1ccc2nc(-c3ccc(F)cc3)c(CC(=O)N3CCN(C(C)C)CC3)n2c1 [Compound 8, 2-[2-(4-Fluorophenyl)-6-methylimidazo[1,2-a]pyridin-3-yl]-1-[4-(propan-2-yl)piperazin-1-yl]ethan-1-one]
- Ki (GABA-A receptor): 5230 ± 510 nM

Compound: Cc1ccc2nc(-c3ccc(F)cc3)c(CC(=O)N3CCCCCC3)n2c1 [Compound 13, 1-(Azepan-1-yl)-2-(2-(4-fluorophenyl)-6-methylimidazo[1,2-a]pyridin-3-yl)ethan-1-one]
- Ki (GABA-A receptor): 453 ± 59.3 nM

Compound: Cc1ccc2nc(-c3ccc(F)cc3)c(CC(=O)N3CCN(CC(C)C)CC3)n2c1 [Compound 10, 2-[2-(4-Fluorophenyl)-6-methylimidazo[1,2-a]pyridin-3-yl]-1-[4-(2-methylpropyl)piperazin-1-yl]ethan-1-one]
- Ki (GABA-A receptor): 3330 ± 374 nM

Compound: Cc1ccc2nc(-c3ccc(F)cc3)c(CC(=O)N3CCSC3)n2c1 [Compound 15, 2-[2-(4-Fluorophenyl)-6-methylimidazo[1,2-a]pyridin-3-yl]-1-(1,3-thiazolidin-3-yl)ethan-1-one]
- EC50 (α1β2γ2 GABA-A receptor): 743 ± 136 nM
- Permeability Pe ± SD (PAMPA permeability assay): 7.89 ± 1.35 ·10^–6 cm/s
- Papp at 5 h, 100 μM (PAMPA permeability assay): > 4 ×10⁻⁶ cm/s
- Reduction of intracellular calcium levels (SH-SY5Y cells [1]): ≤ 50%
- X [%], percentage of dead cells, ToxiLight Assay (per cent of control with whole lysis cells) (SH-SY5Y cells [2]; 1E-04 M): 67%
- X [%], percentage of dead cells, ToxiLight Assay (per cent of control with whole lysis cells) (SH-SY5Y cells [2]; 1E-05 M): 108%
- X [%], percentage of dead cells, ToxiLight Assay (per cent of control with whole lysis cells) (SH-SY5Y cells [2]; 1E-06 M): 110%
- X [%], percentage of dead cells, ToxiLight Assay (per cent of control with whole lysis cells) (SH-SY5Y cells [2]; 1E-07 M): 107%
- X [%], percentage of dead cells, ToxiLight Assay (per cent of control with whole lysis cells) (SH-SY5Y cells [2]; 1E-08 M): 108%
- X [%], percentage of dead cells, ToxiLight Assay (per cent of control with whole lysis cells) (SH-SY5Y cells [2]; 1E-09 M): 101%
- X [%], percentage of dead cells, ToxiLight Assay (per cent of control with whole lysis cells) (SH-SY5Y cells [2]; 3E-05 M): 96%
- X [%], percentage of dead cells, ToxiLight Assay (per cent of control with whole lysis cells) (SH-SY5Y cells [2]; 3E-06 M): 105%
- X [%], percentage of live cells, PrestoBlue Assay (per cent of vehicle DMSO) (SH-SY5Y cells [3]; 1E-04 M): 14%
- X [%], percentage of live cells, PrestoBlue Assay (per cent of vehicle DMSO) (SH-SY5Y cells [3]; 1E-05 M): 12%
- X [%], percentage of live cells, PrestoBlue Assay (per cent of vehicle DMSO) (SH-SY5Y cells [3]; 1E-06 M): 16%
- X [%], percentage of live cells, PrestoBlue Assay (per cent of vehicle DMSO) (SH-SY5Y cells [3]; 1E-07 M): 14%
- X [%], percentage of live cells, PrestoBlue Assay (per cent of vehicle DMSO) (SH-SY5Y cells [3]; 1E-08 M): 15%
- X [%], percentage of live cells, PrestoBlue Assay (per cent of vehicle DMSO) (SH-SY5Y cells [3]; 1E-09 M): 14%
- X [%], percentage of live cells, PrestoBlue Assay (per cent of vehicle DMSO) (SH-SY5Y cells [3]; 3E-05 M): 15%
- X [%], percentage of live cells, PrestoBlue Assay (per cent of vehicle DMSO) (SH-SY5Y cells [3]; 3E-06 M): 15%

Compound: Cc1ccc2nc(-c3ccc(F)cc3)c(CC(=O)N3CC4CCCCC4C3)n2c1 (stereo not shown) [Compound 12, 2-[2-(4-Fluorophenyl)-6-methylimidazo[1,2-a]pyridin-3-yl]-1-(octahydro-1H-isoindol-2-yl)ethan-1-one]
- Ki (GABA-A receptor): 517 ± 61.2 nM

Compound: Cc1ccc2nc(-c3ccc(F)cc3)c(CC(=O)N3CCN(C(C)(C)C)CC3)n2c1 [Compound 11, 1-(4-tert-Butylpiperazin-1-yl)-2-[2-(4-fluorophenyl)-6-methylimidazo[1,2-a]pyridin-3-yl]ethan-1-one]
- Ki (GABA-A receptor): 7820 ± 1720 nM

Compound: CN1C(=O)CN=C(c2ccccc2)c2cc(Cl)ccc21 [diazepam, reference compound]
- Ki (GABA-A receptor): 5.6 ± 0.7 nM

Compound: Cc1ccc2nc(-c3ccc(F)cc3)c(CC(=O)N3CCN(C)CC3)n2c1 [Compound 4, 2-[2-(4-Fluorophenyl)-6-methylimidazo[1,2-a]pyridin-3-yl]-1-(4-methylpiperazin-1-yl)ethan-1-one formate salt]
- Ki (GABA-A receptor): 278 ± 43 nM

Compound: Cc1ccc2nc(-c3ccc(F)cc3)c(CC(=O)N3CCN(C4CC4)CC3)n2c1 [Compound 9, 1-(4-Cyclopropylpiperazin-1-yl)-2-[2-(4-fluorophenyl)-6-methylimidazo[1,2-a]pyridin-3-yl]ethan-1-one]
- Ki (GABA-A receptor): 1340 ± 46 nM

Compound: Cc1ccc2nc(-c3ccc(F)cc3)c(CC(=O)N3CCNCC3)n2c1 [Compound 5, 2-[2-(4-Fluorophenyl)-6-methylimidazo[1,2-a]pyridin-3-yl]-1-(piperazin-1-yl)ethan-1-one]
- Papp at 5 h, 100 μM (PAMPA permeability assay): 3.35 ± 0.4 ×10⁻⁶ cm/s
